Patent US20050175688A1 (priority 2004, published 2005)

Columns and labels:
Solubility in water = assay type: physicochemical
[1] = test system: chronic pelvic pain/endometriosis; assay: Potaba protocol study: oral Potaba in women with chronic pelvic pain/endometriosis; assay type: in vivo
Method: The total number of women under clinical examination was 212.
All of those who volunteered for the therapy protocol met the criteria of 10 points or more on the self-test, that threshold defining a subject who was at risk for endometriosis.
A pelvic pain assessment which was originated by the International Pelvic Pain Society© 1999 (IPPS) was also conducted. IPPS evaluated the volunteer subjects for the following information: pain, menses, bladder, bowel habits, gastro-intestinal/eating habits, health habits, coping mechanisms, a short form McGill questionnaire (psychological; level of depression assay), daily activities, personal history, surgical history, sexual history and physical history.
In addition to a careful review of the pre-test examinations of the prospective subjects, exclusion criteria were also established as a means of reducing unrelated influences into the test results.
Only one physician conducted the physical evaluation of each of the participants to ensure consistency throughout the study. In addition to repeated laboratory and thorough physical examinations, the examining physician personally discussed and recorded responses to questions about the presence or absence of side-effects and improvements in symptoms, if any. […] Although the subjects individual responses to questions regarding symptoms and particularly levels of pain experience throughout the test period inherently can include a subjective element, the questions were repetitiously and precisely posed to the subjects so as to prompt a consistent response minimally effected by the questioner's choice of words, tone, delivery, etc. The test subjects reported pelvic pain experience as a number selected between the levels of 1 to 10, with 1 being no pain experienced and 10 being the most severe level of pain.

[2] = 12 grams/day po, out of 25 participants

## Nc1ccc(C(=O)O)cc1 [Potaba, aminobenzoate potassium]
Solubility in water
  solubility in water: highly soluble in water
[1]; [2]
  Discontinued Potaba protocol (reason): nausea, No. of Study Participants: 3
  Discontinued Potaba protocol (reason): rash, No. of Study Participants: 2
[1]; oral administration
  incidence of drug interactions: low incidence of drug interactions
[1]; oral administration, potassium
  toxicity / safety of oral administration (result in words): non-toxic and safe
